Tested on: not listed separately
Assay: Acute toxicity in mice (oral)
Parameters: species or system mouse (ICR)
Details: in vivo, mouse, mortality during 14 days
Excerpt: (§1) Acute toxicity of 3,4-dihydro-2,8-diisopropyl-3-thioxo-2H-1,4-benzoxazine-4-acetic acid was examined in mice and rats.
(§2) The various doses of the test compound suspended in 5% gum arabic solution were orally administered to male ICR mice (4 weeks old) and male Wistar rats (5 weeks old), and then mortality was observed during 14 days. Each group consisted of 5 animals.

Row | SMILES | LD50 at 336 h [mg/kg]
1 | CC(C)c1cccc2c1OC(C(C)C)C(=S)N2CC(=O)O (stereo not drawn) [Example 8, 3,4-dihydro-2,8-diisopropyl-3-thioxo-2H-1,4-benzoxazine-4-acetic acid] | 1880

Tested on: not listed separately
Assay: Acute toxicity in rats (oral)
Parameters: species or system rat (Wistar)
Details: in vivo, rat, mortality during 14 days
Excerpt: as §1, §2

Row | SMILES | LD50 at 336 h [mg/kg]
2 | CC(C)c1cccc2c1OC(C(C)C)C(=S)N2CC(=O)O (stereo not drawn) [Example 8, 3,4-dihydro-2,8-diisopropyl-3-thioxo-2H-1,4-benzoxazine-4-acetic acid] | 2830

Tested on: sorbitol accumulation in sciatic nerves of streptozocin diabetic rats
Assay: Inhibition of sorbitol accumulation in the tissue of experimentally induced diabetic rat
Format: in vivo, rat (Spraque-Dawley)
Details: 30 mg/kg orally twice a day for 2 days; sciatic nerve; untreated control group = 100
Description: Spraque-Dawley rats (male, 5-7-week-old, 5 animals per group) were fasted for 18 hours, and received injection of 70 mg/kg of streptozocin (Cal Biochem Co.) into the caudal vein under anesthesia with ether, so that diabetic rats were obtained. From immediately after the injection of streptozocin these rats were given orally the test compound of 50 mg/kg or 30 mg/kg in the form of 5% gum arabic suspension twice a day (at 10 a.m. and 5 p.m.) for 2 days. During this period the rats were allowed to take CE-2 diet (Clea Japan, Inc.) and water ad libitum. In the morning on the 3rd day (9 a.m.) the rats were killed (decapitation and venesection), and immediately the sciatic nerves were isolated, from which sorbitol was extracted according to the method of M. J. Peterson et al. described in Metabolism, 28, 456 (1979) and the sorbitol level was determined by the enzymatic method of P.S. Clements et al. in Science, 166, 1007 (1969).

Row | SMILES | sorbitol accumulation [%]
3 | CC(C)C1Oc2ccccc2N(CC(=O)O)C1=S (stereo not drawn) [Example 1, 3,4-dihydro-2-isopropyl-3-thioxo-2H-1,4-benzoxazine-4-acetic acid] | 51
4 | O=C(O)CN1C(=S)COc2ccc(F)cc21 [Control A, 6fluoro-3,4-dihydro-3-thioxo-2H--1,4benzoxazine-4-acetic acid, reference compound] | 73
5 | CC(C)C1Sc2ccccc2N(CC(=O)O)C1=S (stereo not drawn) [Example 9, 3,4-dihydro-2-isopropyl-3-thioxo-2H-1,4-benzothiazine-4-acetic acid] | 60
6 | Cc1cccc2c1OC(C(C)C)C(=S)N2CC(=O)O (stereo not drawn) [Example 6, 3,4-dihydro-2-isopropyl-8-methyl-3-thioxo2H-1,4-benzoxazine-4-acetic acid] | 33
7 | CCC(C)C1Sc2ccccc2N(CC(=O)O)C1=S (stereo not drawn) [Example 11, 3,4-dihydro-2-(1-methylpropyl)-3-thioxo-2H-1,4-benzothiazine-4-acetic acid] | 67
8 | CCOc1cccc2c1OC(C(C)C)C(=S)N2CC(=O)O (stereo not drawn) [Example 12, 8-ethoxy-3,4-dihydro-2isopropyl3-thioxo-2H-1,4-benzoxazine-4-acetic acid] | 58
9 | CC(C)C1Oc2c(F)cccc2N(CC(=O)O)C1=S (stereo not drawn) [Example 4, 8-fluoro-3,4-dihydro-2-isopropyl-3-thioxo-2H-1,4-benzoxazine-4-acetic acid] | 45
10 | CC(C)C1Oc2c(cccc2C(C)(C)C)N(CC(=O)O)C1=S (stereo not drawn) [Example 19, 8-t-butyl-3,4-dihydro-2-isopropyl-3-thioxo-2H-1,4-benzoxazine-4-acetic acid] | 15
11 | CC(C)c1cccc2c1OC(C(C)C)C(=S)N2CC(=O)O (stereo not drawn) [Example 8, 3,4-dihydro-2,8-diisopropyl-3-thioxo-2H-1,4-benzoxazine-4-acetic acid] | 30

Same assay, conditions: 50 mg/kg orally twice a day for 2 days; sciatic nerve; untreated control group = 100

Row | SMILES | sorbitol accumulation [%]
12 | CC(C)C1Oc2ccccc2N(CC(=O)O)C1=S (stereo not drawn) [Example 1, 3,4-dihydro-2-isopropyl-3-thioxo-2H-1,4-benzoxazine-4-acetic acid] | 18
13 | O=C(O)CN1C(=S)COc2ccc(F)cc21 [Control A, 6fluoro-3,4-dihydro-3-thioxo-2H--1,4benzoxazine-4-acetic acid, reference compound] | 60
14 | CC(C)C1Sc2ccccc2N(CC(=O)O)C1=S (stereo not drawn) [Example 9, 3,4-dihydro-2-isopropyl-3-thioxo-2H-1,4-benzothiazine-4-acetic acid] | 46
15 | Cc1cccc2c1OC(C(C)C)C(=S)N2CC(=O)O (stereo not drawn) [Example 6, 3,4-dihydro-2-isopropyl-8-methyl-3-thioxo2H-1,4-benzoxazine-4-acetic acid] | 16
16 | CCC(C)C1Sc2ccccc2N(CC(=O)O)C1=S (stereo not drawn) [Example 11, 3,4-dihydro-2-(1-methylpropyl)-3-thioxo-2H-1,4-benzothiazine-4-acetic acid] | 38
17 | CC(C)C1Oc2c(F)cccc2N(CC(=O)O)C1=S (stereo not drawn) [Example 4, 8-fluoro-3,4-dihydro-2-isopropyl-3-thioxo-2H-1,4-benzoxazine-4-acetic acid] | 14

Same assay, conditions: vs control compounds A, B, C

Row | SMILES | inhibition of sorbitol accumulation in vivo compared with control compounds (in words)
18 | CC(C)C1Sc2ccccc2N(CC(=O)O)C1=S (stereo not drawn) [Example 9, 3,4-dihydro-2-isopropyl-3-thioxo-2H-1,4-benzothiazine-4-acetic acid] | The difference is particularly evident
19 | CCC(C)C1Sc2ccccc2N(CC(=O)O)C1=S (stereo not drawn) [Example 11, 3,4-dihydro-2-(1-methylpropyl)-3-thioxo-2H-1,4-benzothiazine-4-acetic acid] | The difference is particularly evident

Target: T1, aldose reductase from human placenta (Homo sapiens, UniProt P15121)
T1 construct: Partially purified aldose reductase from human placenta; from tissue; host or cells: human placenta
Assay: Aldose reductase inhibition (in vitro study)
Format: biochemical
Details: 10^-6 M
Excerpt: 1. Aldose reductase inhibition (in vitro study)
Partially purified aldose reductase from human placenta was used for the test of aldose reductase inhibitory effect according to the method of S. Hayman et al. described in Journal of Biological Chemistry, 240, 877 (1965) or the method of J. H. Kinoshita et al. described in Metabolism, 28, Supplement 1, 462 (1979).

Row | SMILES | inhibition at 1 µM [%]
20 | O=C(O)CN1C(=S)COc2ccc(F)cc21 [Control A, 6fluoro-3,4-dihydro-3-thioxo-2H--1,4benzoxazine-4-acetic acid, reference compound] | 50.8
21 | CC(C)C1Sc2ccccc2N(CC(=O)O)C1=S (stereo not drawn) [Example 9, 3,4-dihydro-2-isopropyl-3-thioxo-2H-1,4-benzothiazine-4-acetic acid] | 46.4
22 | CCC(C)C1Sc2ccccc2N(CC(=O)O)C1=S (stereo not drawn) [Example 11, 3,4-dihydro-2-(1-methylpropyl)-3-thioxo-2H-1,4-benzothiazine-4-acetic acid] | 47.1
23 | CC(C)c1cccc2c1OC(C(C)C)C(=S)N2CC(=O)O (stereo not drawn) [Example 8, 3,4-dihydro-2,8-diisopropyl-3-thioxo-2H-1,4-benzoxazine-4-acetic acid] | 50.2

Second part, the compound after the results:

Row | inhibition at 1 µM [%] | SMILES
24 | 46.7 | CC(C)C1Oc2ccccc2N(CC(=O)O)C1=S (stereo not drawn) [Example 1, 3,4-dihydro-2-isopropyl-3-thioxo-2H-1,4-benzoxazine-4-acetic acid]
25 | 48.2 | Cc1cccc2c1OC(C(C)C)C(=S)N2CC(=O)O (stereo not drawn) [Example 6, 3,4-dihydro-2-isopropyl-8-methyl-3-thioxo2H-1,4-benzoxazine-4-acetic acid]
26 | 43 | CCOc1cccc2c1OC(C(C)C)C(=S)N2CC(=O)O (stereo not drawn) [Example 12, 8-ethoxy-3,4-dihydro-2isopropyl3-thioxo-2H-1,4-benzoxazine-4-acetic acid]
27 | 45.6 | CC(C)C1Oc2c(F)cccc2N(CC(=O)O)C1=S (stereo not drawn) [Example 4, 8-fluoro-3,4-dihydro-2-isopropyl-3-thioxo-2H-1,4-benzoxazine-4-acetic acid]
28 | 39.3 | CC(C)C1Oc2c(cccc2C(C)(C)C)N(CC(=O)O)C1=S (stereo not drawn) [Example 19, 8-t-butyl-3,4-dihydro-2-isopropyl-3-thioxo-2H-1,4-benzoxazine-4-acetic acid]

Same assay, conditions: 10^-7 M

Row | SMILES | inhibition at 0.1 µM [%]
29 | O=C(O)CN1C(=S)COc2ccc(F)cc21 [Control A, 6fluoro-3,4-dihydro-3-thioxo-2H--1,4benzoxazine-4-acetic acid, reference compound] | 25
30 | CC(C)C1Sc2ccccc2N(CC(=O)O)C1=S (stereo not drawn) [Example 9, 3,4-dihydro-2-isopropyl-3-thioxo-2H-1,4-benzothiazine-4-acetic acid] | 20
31 | CCC(C)C1Sc2ccccc2N(CC(=O)O)C1=S (stereo not drawn) [Example 11, 3,4-dihydro-2-(1-methylpropyl)-3-thioxo-2H-1,4-benzothiazine-4-acetic acid] | 15.2
32 | CC(C)c1cccc2c1OC(C(C)C)C(=S)N2CC(=O)O (stereo not drawn) [Example 8, 3,4-dihydro-2,8-diisopropyl-3-thioxo-2H-1,4-benzoxazine-4-acetic acid] | 9.1

Results, then the compound that gave them:

Row | inhibition at 0.1 µM [%] | SMILES
33 | 19.1 | CC(C)C1Oc2ccccc2N(CC(=O)O)C1=S (stereo not drawn) [Example 1, 3,4-dihydro-2-isopropyl-3-thioxo-2H-1,4-benzoxazine-4-acetic acid]
34 | 9.4 | Cc1cccc2c1OC(C(C)C)C(=S)N2CC(=O)O (stereo not drawn) [Example 6, 3,4-dihydro-2-isopropyl-8-methyl-3-thioxo2H-1,4-benzoxazine-4-acetic acid]
35 | 19.2 | CCOc1cccc2c1OC(C(C)C)C(=S)N2CC(=O)O (stereo not drawn) [Example 12, 8-ethoxy-3,4-dihydro-2isopropyl3-thioxo-2H-1,4-benzoxazine-4-acetic acid]
36 | 3.8 | CC(C)C1Oc2c(F)cccc2N(CC(=O)O)C1=S (stereo not drawn) [Example 4, 8-fluoro-3,4-dihydro-2-isopropyl-3-thioxo-2H-1,4-benzoxazine-4-acetic acid]
37 | 8 | CC(C)C1Oc2c(cccc2C(C)(C)C)N(CC(=O)O)C1=S (stereo not drawn) [Example 19, 8-t-butyl-3,4-dihydro-2-isopropyl-3-thioxo-2H-1,4-benzoxazine-4-acetic acid]

Tested on: washed rat platelets
Assay: Inhibitory action on platelet aggregation (washed rat platelets)
Format: cell-based, rat (Spraque-Dawley)
Details: ADP-induced aggregation
Description: 3. Inhibitory action on platelet aggregation
Effect of 3,4-dihydro-2,8-diisopropyl-3-thioxo-2H-1,4-benzoxazine-4-acetic acid on platelet aggregation was examined using washed rat platelets.
Platelet rich plasma (PRP) was prepared by centrifuging the blood at 150 xg for 15 min at room temperature. To prepare washed platelets, the PRP was centrifuged at 1500 xg for 10 min and the precipitated platelets were resuspended in Tyrode's solution. The number of platelets used was 7×10^5 cells/mm^3. Platelet aggregation was measured by the turbidmetric method using an aggregometer (Nikko Bioscience, Model PAR-4M, Tokyo). The test compound dissolved in 10 μl of water was added to 250 μl of washed platelet suspension and incubated at 37° C. for 3 min before 10 μl of aggregating agents ([…] of collagen, Nikko Bioscience or 10 μM of ADP, Shigma, St. Louis, Mo., at the final concentration) was added.

Row | SMILES | inhibitory action compared with indomethacin (in words)
38 | CC(C)c1cccc2c1OC(C(C)C)C(=S)N2CC(=O)O (stereo not drawn) [Example 8, 3,4-dihydro-2,8-diisopropyl-3-thioxo-2H-1,4-benzoxazine-4-acetic acid] | more potent than that of indomethacin

Same assay, conditions: Rattus norvegicus, Platelet, inducer ADP; 3 × 10^-4 M; Mean ± SD (N = 3); read-out: percent inhibition of aggregation

Row | SMILES | inhibition at 300 µM [%]
39 | CC(C)c1cccc2c1OC(C(C)C)C(=S)N2CC(=O)O (stereo not drawn) [Example 8, 3,4-dihydro-2,8-diisopropyl-3-thioxo-2H-1,4-benzoxazine-4-acetic acid] | 42 ± 7.1

Same assay, conditions: Rattus norvegicus, Platelet, inducer ADP; 10^-4 M; Mean ± SD (N = 3); read-out: percent inhibition of aggregation

Row | SMILES | inhibition at 100 µM [%]
40 | CC(C)c1cccc2c1OC(C(C)C)C(=S)N2CC(=O)O (stereo not drawn) [Example 8, 3,4-dihydro-2,8-diisopropyl-3-thioxo-2H-1,4-benzoxazine-4-acetic acid] | 90 ± 6

Same assay, conditions: Rattus norvegicus, Platelet, inducer collagen; 3 × 10^-4 M; Mean ± SD (N = 3); read-out: percent inhibition of aggregation

Row | SMILES | inhibition at 300 µM [%]
41 | CC(C)c1cccc2c1OC(C(C)C)C(=S)N2CC(=O)O (stereo not drawn) [Example 8, 3,4-dihydro-2,8-diisopropyl-3-thioxo-2H-1,4-benzoxazine-4-acetic acid] | 24.1 ± 3.4

Same assay, conditions: Rattus norvegicus, Platelet, inducer collagen; 3 × 10^-5 M; Mean ± SD (N = 3); read-out: percent inhibition of aggregation

Row | SMILES | inhibition at 30 µM [%]
42 | CC(C)c1cccc2c1OC(C(C)C)C(=S)N2CC(=O)O (stereo not drawn) [Example 8, 3,4-dihydro-2,8-diisopropyl-3-thioxo-2H-1,4-benzoxazine-4-acetic acid] | 74.5 ± 5.5

Same assay, conditions: Rattus norvegicus, Platelet, inducer collagen; 6 × 10^-5 M; Mean ± SD (N = 3); read-out: percent inhibition of aggregation

Row | SMILES | inhibition at 60 µM [%]
43 | CC(C)c1cccc2c1OC(C(C)C)C(=S)N2CC(=O)O (stereo not drawn) [Example 8, 3,4-dihydro-2,8-diisopropyl-3-thioxo-2H-1,4-benzoxazine-4-acetic acid] | 46.5 ± 1.3

Same assay, conditions: Rattus norvegicus, Platelet, inducer collagen; 10^-4 M; Mean ± SD (N = 3); read-out: percent inhibition of aggregation

Row | SMILES | inhibition at 100 µM [%]
44 | CC(C)c1cccc2c1OC(C(C)C)C(=S)N2CC(=O)O (stereo not drawn) [Example 8, 3,4-dihydro-2,8-diisopropyl-3-thioxo-2H-1,4-benzoxazine-4-acetic acid] | 31.8 ± 0.9

Same assay, conditions: induced by either collagen or ADP

Row | SMILES | inhibition of aggregation of washed platelets (in words)
45 | CC(C)c1cccc2c1OC(C(C)C)C(=S)N2CC(=O)O (stereo not drawn) [Example 8, 3,4-dihydro-2,8-diisopropyl-3-thioxo-2H-1,4-benzoxazine-4-acetic acid] | inhibited aggregation of washed platelets induced by either collagen or ADP in a dose related manner
